Structures can show the parent of a compound that is named as a salt. Where two headings read alike, the source gives them in different places.
Test system: P. falciparum infected erythrocytes
Assay: P. falciparum growth inhibition assay ([3H]hypoxanthine incorporation)
Type: cell-based, Plasmodium falciparum
Method: P. falciparum Growth Inhibition Assay.
The sensitivity of P. falciparum infected erythrocytes to the compound was determined in duplicate using the [3H]hypoxanthine incorporation method with an inoculum of 0.5% parasitemia (ring stage) and 2% hematocrit. The parasites were grown in RPMI 1640, 25 mM HEPES and supplemented with 5% Albumax. Plates are incubated at 37° C., 5% CO2, 5% O2, 90% N2. After 24 h of incubation, [3H]hypoxanthine is added and plates are incubated for another 24 h. After that period, plates are harvested on a glass fiber filter using a TOMTEC Cell harvester 96. Filters are dried and melt on scintillator sheets and the bound radioactivity is quantified by use of a Wallac Microbeta Trilux (Model 1450 LS—Perkin Elmer). IC50s are determined using Grafit 7 program (Grafit program; Erithacus Software, Horley, Surrey, United Kingdom).
Each example compound was tested generally in accordance with the above-mentioned assay and the PfIC50 value for each compound is reported in the Table below and according to the following: […]

[1] = [3H]hypoxanthine incorporation, 0.5% parasitemia, 2% hematocrit, 48 h, read-out: PfIC50 Media
[2] = Plasmodium falciparum, Erythrocyte, [3H]hypoxanthine incorporation, 0.5% parasitemia, 2% hematocrit, 48 h, read-out: PfIC50 Media
[3] = Plasmodium falciparum, Erythrocyte, hydrochloride salt, read-out: average PfIC50 of the hydrochloride salt
[4] = Plasmodium falciparum, Erythrocyte, read-out: average PfIC50

Row | Compound | IC50 [2] [µM] | also measured
1 | O=C(c1ccc(OCC(O)Cc2cscn2)cc1)N1CC[C@H](c2ccc(F)cc2)C1 (single isomer, unassigned) [Example 35b] | – | IC50 [1]: 0.1 to 0.5 µM
2 | N[C@@H](COc1ccc(C(=O)N2CC[C@H](c3ccc(F)cc3)C2)cc1)Cn1ncnn1 [Example 45, (4-((R)-2-Amino-3-(2H-tetrazol-2-yl)propoxy)phenyl)((R)-3-(4-fluorophenyl)pyrrolidin-1-yl)methanone] | < 0.1 | IC50 (Plasmodium falciparum, Erythrocyte, hydrochloride salt of the example, same assay, read-out: PfIC50 Media (uM), (HCl)): < 0.1 µM; IC50 [3]: 0.03 µM; IC50 [4]: 0.018 µM
3 | CC(COc1ccc(C(=O)N2CC[C@H](c3ccc(F)cc3)C2)cc1)Cn1cnnn1 (single isomer, unassigned) [Example 1a] | 0.1 to 0.5 | –
4 | COc1ccc(C2CCN(C(=O)c3ccc(OC[C@H](O)Cn4ncnn4)cc3)C2)cc1 (single isomer, unassigned) [Example 44b] | – | IC50 [1]: 0.5 to 1 µM
5 | CC(C)(COc1ccc(C(=O)N2CC[C@H](c3ccc(F)cc3)C2)cc1)Cn1cnnn1 [Example 2, (R)-(4-(2,2-Dimethyl-3-(1H-tetrazol-1-yl)propoxy)phenyl)(3-(4-fluorophenyl)pyrrolidin-1-yl)methanone] | 0.5 to 1 | –
6 | O=C(c1ccc(OC[C@@H](O)Cn2cnnn2)cc1)N1CC[C@H](c2ccc(F)cc2)C1 [Example 6, ((R)-3-(4-Fluorophenyl)pyrrolidin-1-yl)(4-((S)-2-hydroxy-3-(1H-tetrazol-1-yl)propoxy)phenyl)methanone] | 0.1 to 0.5 | –
7 | O=C(c1ccc(OC[C@H](O)Cn2cnnn2)cc1F)N1CC[C@H](c2ccc(F)cc2)C1 [Example 26, (2-fluoro-4-((R)-2-hydroxy-3-(1H-tetrazol-1-yl)propoxy)phenyl)((R)-3-(4-fluorophenyl)pyrrolidin-1-yl)methanone] | 0.1 to 0.5 | –
8 | O=C(c1ccc(OCC(F)Cn2cnnn2)cc1)N1CC[C@H](c2ccc(F)cc2)C1 (single isomer, unassigned) [Example 3b] | – | IC50 [4]: ≤ 0.05 µM; IC50 [1]: < 0.1 µM
9 | Cn1nnc(C[C@@H](O)COc2ccc(C(=O)N3CC[C@H](c4ccc(F)cc4)C3)cc2)n1 [Example 23, ((R)-3-(4-fluorophenyl)pyrrolidin-1-yl)(4-((R)-2-hydroxy-3-(2-methyl-2H-tetrazol-5-yl)propoxy)phenyl)methanone] | < 0.1 | –
10 | O=C(c1ccc(OCC(F)(F)Cn2cnnn2)cc1)N1CC[C@H](c2ccc(F)cc2)C1 [Example 4, (R)-(4-(2,2-Difluoro-3-(1H-tetrazol-1-yl)propoxy)phenyl)(3-(4-fluorophenyl)-pyrrolidin-1-yl)methanone] | < 0.1 | IC50 [4]: ≤ 0.05 µM
11 | N[C@@H](COc1ccc(C(=O)N2CC[C@H](c3ccc(F)cc3)C2)cc1)Cn1nccn1 [Example 53, (4-((R)-2-amino-3-(2H-1,2,3-triazol-2-yl)propoxy)phenyl)((R)-3-(4-fluorophenyl)pyrrolidin-1-yl)methanone, Hydrochloride] | < 0.1 | –
12 | O=C(c1ccc(OC[C@H](O)Cn2cnnn2)cc1F)N1CC[C@H](c2ccc(Cl)cc2)C1 [Example 33, ((R)-3-(4-chlorophenyl)pyrrolidin-1-yl) (2-fluoro-4-((R)-2-hydroxy-3-(1H-tetrazol-1-yl)propoxy)phenyl)methanone] | 0.1 to 0.5 | –
13 | N[C@@H](COc1ccc(C(=O)N2CC[C@H](c3ccc(F)cc3)C2)c(F)c1)Cn1ncnn1 [Example 56, (4-((R)-2-amino-3-(2H-tetrazol-2-yl)propoxy)-2-fluorophenyl)((R)-3-(4-fluorophenyl)pyrrolidin-1-yl)methanone, Hydrochloride] | 0.1 to 0.5 | –
14 | Cl.N[C@H](COc1ccc(C(=O)N2CC[C@@H](c3ccc(F)cc3)C2)cc1)Cn1ncnn1 [Example 51, (4-((S)-2-amino-3-(2H-tetrazol-2-yl)propoxy)phenyl)((S)-3-(4-fluorophenyl)pyrrolidin-1-yl)methanone, Hydrochloride] | – | IC50 [3]: > 5 µM
15 | O=C(c1ccc(OC[C@H](O)Cn2ncnn2)cc1)N1CCC(c2cccc(F)c2)C1 (single isomer, unassigned) [Example 41a] | – | IC50 [4]: ≤ 0.05 µM; IC50 [1]: < 0.1 µM
16 | O=C(c1ccc(OC[C@H](O)Cn2ccnn2)cc1)N1CC[C@H](c2ccc(F)cc2)C1 [Example 17, ((R)-3-(4-fluorophenyl)pyrrolidin-1-yl)(4-((R)-2-hydroxy-3-(1H-1,2,3-triazol-1-yl)propoxy)phenyl)methanone] | < 0.1 | IC50 [4]: ≤ 0.05 µM
17 | NC(=O)c1nnn(C[C@@H](O)COc2ccc(C(=O)N3CC[C@H](c4ccc(F)cc4)C3)cc2)n1 [Example 38, 2-((R)-3-(4-((R)-3-(4-Fluorophenyl)pyrrolidine-1-carbonyl)phenoxy)-2-hydroxypropyl)-2H-tetrazole-5-carboxamide] | 0.1 to 0.5 | –

Row | Compound | IC50 [2] [µM] | also measured
18 | N[C@@H](COc1ccc(C(=O)N2CC[C@H](c3ccc(F)cc3)C2)cc1)Cn1cncn1 [Example 52, (4-((R)-2-amino-3-(1H-1,2,4-triazol-1-yl)propoxy)phenyl)((R)-3-(4-fluorophenyl)pyrrolidin-1-yl)methanone, Hydrochloride] | 0.1 to 0.5 | –
19 | N#Cc1nnn(C[C@@H](O)COc2ccc(C(=O)N3CC[C@H](c4ccc(F)cc4)C3)cc2)n1 [Example 39, 2-((R)-3-(4-((R)-3-(4-Fluorophenyl)pyrrolidine-1-carbonyl)phenoxy)-2-hydroxypropyl)-2H-tetrazole-5-carbonitrile] | 0.1 to 0.5 | –
20 | O=C(c1ccc(OC[C@H](O)Cn2ccnc2)cc1)N1CC[C@H](c2ccc(F)cc2)C1 [Example 20, ((R)-3-(4-fluorophenyl)pyrrolidin-1-yl)(4-((R)-2-hydroxy-3-(1H-imidazol-1-yl)propoxy)phenyl)methanone] | < 0.1 | –
21 | O=C(c1ccc(OC[C@H](O)Cn2cnnc2)cc1)N1CC[C@H](c2ccc(F)cc2)C1 [Example 18, ((R)-3-(4-fluorophenyl)pyrrolidin-1-yl)(4-((R)-2-hydroxy-3-(4H-1,2,4-triazol-4-yl)propoxy)phenyl)methanone] | 1 to 5 | –
22 | O=C(c1ccc(OCC(F)Cn2cnnn2)cc1)N1CC[C@H](c2ccc(F)cc2)C1 (single isomer, unassigned) [Example 3a] | 0.1 to 0.5 | –
23 | O=C(c1ccc(OC[C@H](O)Cn2ncnn2)cc1F)N1CC[C@H](c2ccc(F)cc2)C1 [Example 27, (2-fluoro-4-((R)-2-hydroxy-3-(2H-tetrazol-2-yl)propoxy)phenyl)((R)-3-(4-fluorophenyl)pyrrolidin-1-yl)methanone] | < 0.1 | IC50 [4]: ≤ 0.05 µM
24 | O=C(c1ccc(OC[C@@H](O)Cn2ncnn2)cc1)N1CC[C@@H](c2ccc(F)cc2)C1 [Example 14, ((S)-3-(4-Fluorophenyl)pyrrolidin-1-yl)(4-((S)-2-hydroxy-3-(2H-tetrazol-2-yl)propoxy)phenyl)methanone] | 1 to 5 | IC50 [4]: 1.2 µM
25 | O=C(c1ccc(OC[C@H](O)Cn2ccnn2)cc1)N1CC[C@H](c2ccc(Cl)cc2)C1 [Example 32, ((R)-3-(4-chlorophenyl)pyrrolidin-1-yl)(4-((R)-2-hydroxy-3-(1H-1,2,3-triazol-1-yl)propoxy)phenyl)methanone] | < 0.1 | IC50 [4]: ≤ 0.05 µM
26 | O=C(c1ccc(OC[C@H](O)Cn2ncnn2)cc1)N1CCC(c2ccccc2F)C1 (single isomer, unassigned) [Example 40b] | – | IC50 [1]: 0.1 to 0.5 µM
27 | O=C(c1ccc(OC[C@H](O)Cn2ncnn2)cc1)N1CCC(c2ccc(F)cc2F)C1 (single isomer, unassigned) [Example 42b] | – | IC50 [1]: 0.1 to 0.5 µM
28 | CC(O)(COc1ccc(C(=O)N2CC[C@H](c3ccc(F)cc3)C2)cc1)Cn1cnnn1 (stereo partly drawn) [Example 10b, ((R)-3-(4-Fluorophenyl)pyrrolidin-1-yl)(4-(2-hydroxy-2-methyl-3-(1H-tetrazol-1-yl)propoxy)phenyl)methanone] | – | IC50 [1]: 1 to 5 µM
29 | Cn1ccc(CC(O)COc2ccc(C(=O)N3CC[C@H](c4ccc(F)cc4)C3)cc2)n1 (single isomer, unassigned) [Example 36a] | < 0.1 | –
30 | Cc1nnn(C[C@@H](O)COc2ccc(C(=O)N3CC[C@H](c4ccc(F)cc4)C3)cc2)n1 [Example 22, ((R)-3-(4-fluorophenyl)pyrrolidin-1-yl)(4-((R)-2-hydroxy-3-(5-methyl-2H-tetrazol-2-yl)propoxy)phenyl)methanone] | < 0.1 | –
31 | O=C(c1ccc(OC[C@H](O)Cn2ncnn2)cc1)N1CC[C@H](c2ccc(Cl)cc2)C1 [Example 29, ((R)-3-(4-chlorophenyl)pyrrolidin-1-yl)(4-((R)-2-hydroxy-3-(2H-tetrazol-2-yl)propoxy)phenyl)methanone] | < 0.1 | IC50 [4]: ≤ 0.05 µM
32 | O=C(c1ccc(OC[C@@H](O)Cn2ncnn2)cc1)N1CC[C@H](c2ccc(F)cc2)C1 [Example 8, ((R)-3-(4-fluorophenyl)pyrrolidin-1-yl)(4-((S)-2-hydroxy-3-(2H-tetrazol-2-yl)propoxy)phenyl) methanone] | < 0.1 | IC50 [4]: 0.052 µM
33 | N#Cc1ccc(C2CCN(C(=O)c3ccc(OC[C@H](O)Cn4ncnn4)cc3)C2)cc1 (single isomer, unassigned) [Example 43a] | – | IC50 [1]: 0.1 to 0.5 µM
34 | N[C@H](COc1ccc(C(=O)N2CC[C@H](c3ccc(F)cc3)C2)cc1)Cn1ncnn1 [Example 49, (4-((S)-2-amino-3-(2H-tetrazol-2-yl)propoxy)phenyl)((R)-3-(4-fluorophenyl)pyrrolidin-1-yl)methanone, Hydrochloride] | 0.1 to 0.5 | IC50 [3]: 0.31 µM
